Values after ≈ are worked out from the molar mass of the structure shown. “Also recorded” adds a separate entry of the source. Read-outs that look alike come from different tables or passages of the source.
Legend:
porcine hepatocytes = test: IL-6 production, porcine IL-6 ELISA; assay type: cell-based; settings: S. suis 10^4 CFU/mL in combination with inhibitor, 24 h
Experimental: (§1) After 24 h incubation time, the cell-free supernatants from […], MI-471, and MI-476 exposure were sampled from IPEC-J2 cells and from porcine hepatocytes. The changes in cytokine levels were detected with porcine IL-6 ELISA kits. The manufacturer’s instructions were followed to treat the supernatants and measured by a SpectraMax iD3 microplate reader at 450 nm.

IPEC-J2 cells [1] = test: IL-6 production, porcine IL-6 ELISA; assay type: cell-based; settings: IPEC-J2, S. suis 10^4 CFU/mL in combination with inhibitor, 24 h
Experimental: as §1

IPEC-J2 cells [2] = test: EC H2O2 production, Amplex red method; assay type: cell-based, porcine; settings: 24 h
Experimental: For oxidative status measurements, inhibitors MI-432, MI-471, or MI-476 were used at 50 µM in the absence and presence of S. suis for 24 h in IPEC-J2 cells and in primary porcine hepatocytes on 24-well plates. An Amplex red hydrogen peroxide assay kit was used to monitor EC hydrogen peroxide (H₂O₂) production in IPEC-J2 cells and in hepatocytes. Following the manufacturer’s instructions, cell-free supernatants were collected and mixed with the Amplex red working solution (in a ratio of 1:1). A Victor X2 2030 fluorometer was used to detect fluorescence intensity at wavelengths 530 nm and 590 nm for excitation and emission, respectively.

IPEC-J2 cells [3] = test: Cell viability, Neutral red assay; assay type: cell-based, porcine; settings: IPEC-J2, S. suis 10^4 CFU/mL in combination with inhibitor 50 µM, 24 h
Excerpt: The IPEC-J2 cell line is unique as it is non-transformed and non-tumorigenic. IPEC-J2 cells are derived from intestinal enterocytes extracted from the jejunum of neonatal unsuckled piglets. IPEC-J2 cells were gifted by Dr. Jody Gookin (Department of Clinical Sciences, College of Veterinary Medicine, North Carolina State University, Raleigh, NC, USA). […] The cells had undergone passage around 50 times. […] This experiment included plain DMEM/F12 medium as a control. At the end of the final treatments (24 h), the ratio of viable cells was measured by absorbance at 540 nm wavelength with a SpectraMax iD3 microplate reader.

monkey CYP1A2 enzymes = settings: cited from earlier work
[4] = test system: Enterococcus (E.) faecalis (clinical isolate); test: MIC measurement (broth microdilution); assay type: cell-based
[5] = test system: Burkholderia (B.) cepacia (clinical isolate); test: MIC measurement (broth microdilution); assay type: cell-based
S. suis serotype 2 = test: MIC measurement (broth microdilution); assay type: cell-based, Streptococcus suis; settings: source 672/22, 18–24 h at 37 °C
SARS-CoV-2 = test system: SARS-CoV-2; set-up: method as in PMID 32703818; settings: human airway cells, synergistically in combination with furin inhibitor MI-1851; cited from earlier work
[6] = test system: primary porcine hepatocytes; test: Cell viability, Neutral red assay; assay type: cell-based; settings: S. suis 10^4 CFU/mL in combination with inhibitor 50 µM, 24 h
Experimental: Porcine cryopreserved primary hepatocytes were obtained from Primacyt Cell Culture Company (Schwerin, Germany). Lonza Group Ltd. (Biocenter Ltd., Szeged, Hungary) supplied the thawing, plating, and maintenance media. The cytotoxic effects of inhibitors MI-432, MI-471, and MI-476 were tested on the viability of primary hepatocytes using the NR method. The hepatocytes were cultivated on a 96-well plate for 24 h, followed by incubation with the inhibitors at 0, 50, and 100 µM for an additional 24 h. Only cell maintenance medium was used to incubate the control cells. The plate underwent incubation together with NR dye for 2 h. Hepatocyte viability was recorded at 540 nm with a SpectraMax iD3 microplate reader.

[7] = test system: Staphylococcus (S.) aureus (ATCC 10832); test: MIC measurement (broth microdilution); assay type: cell-based; settings: source ATCC, 18–24 h at 37 °C
[8] = test system: Escherichia (E.) coli (ATCC 11775); test: MIC measurement (broth microdilution); assay type: cell-based; settings: source ATCC, 18–24 h at 37 °C
[9] = test system: Salmonella (S.) enterica (clinical isolate); test: MIC measurement (broth microdilution); assay type: cell-based; settings: source 204/22, 18–24 h at 37 °C
Excerpt: Bacterial strains used in this study were as follows: S. suis serotype 2 (ATCC 958242) Staphylococcus (S.) aureus (ATCC 10832), Escherichia (E.) coli (ATCC 11775), Pseudomonas (P.) aeruginosa (ATCC 27853), Pasteurella (P.) multocida (clinical isolate), Burkholderia (B.) cepacia (clinical isolate), Salmonella (S.) enterica (clinical isolate), and Enterococcus (E.) faecalis (clinical isolate). Of the clinical isolates used in this study, P. multocida is of porcine origin, B. cepacia is of human origin, and S. enterica and E. faecalis are of poultry origin. The bacterial strains were stored in the Microbiology Laboratory of the University of Veterinary Medicine, Budapest, at a temperature of −80 °C. Bacterial strains were inoculated the day before the test in 5 mL of Cation-Adjusted Mueller–Hinton Broth (CAMHB) and incubated for 18–24 h at 37 °C. The initial inoculum concentration used for the MIC assay was 5 × 10^5/mL. All wells except the first column of the working plates were filled with 90 µL CAMHB. A stock solution of inhibitors at 800 µM was then prepared, 180 µL of which was measured into the first column of plates and used to prepare a 2-based dilution on 96-well plates. After the 10th column, the tips were discarded with the 90 µL excess solution so that each column contained 90 µL of solution. Each bacterial strain was tested in a single row on the working plates. A bacterial suspension diluted to 25× was prepared on an auxiliary plate for bacterial inoculation by loading 240 µL of TSB per column of plates and adding 10–10 µL of bacterial strain suspension per well. In the next step, the isolated bacterial strains were inoculated onto the plates. Starting from column 11 (positive control) of the plates containing dilution row 2, 10 µL of bacterial suspension was added to each well, working backward. Column 11 served as a positive control (containing only bacterial suspension and broth), while column 12 served as a negative control (containing only broth). The microplates were then incubated at 37 °C for 18–24 h, and the MIC values were assessed in comparison to positive controls.

[10] = test system: Pasteurella (P.) multocida (clinical isolate); test: MIC measurement (broth microdilution); assay type: cell-based; settings: source 380/22, 18–24 h at 37 °C
[11] = test system: Pseudomonas (P.) aeruginosa (ATCC 27853); test: MIC measurement (broth microdilution); assay type: cell-based; settings: source ATCC, 18–24 h at 37 °C
[12] = test system: S. suis strains isolated from pigs; settings: cited from earlier work; for S. suis strains found to be sensitive: strains isolated from pigs, European VetPath survey 2005–2012; for S. suis strains sensitive: same survey (VetPath)
CYP2D6 = CYP2D6 (Homo sapiens, UniProt P10635); test: CYP enzyme fluorometric activity measurement, human hepatic microsomes; settings: reference inhibitor at 3 µM; p < 0.05
Sequence of CYP2D6 (P10635 whole entry): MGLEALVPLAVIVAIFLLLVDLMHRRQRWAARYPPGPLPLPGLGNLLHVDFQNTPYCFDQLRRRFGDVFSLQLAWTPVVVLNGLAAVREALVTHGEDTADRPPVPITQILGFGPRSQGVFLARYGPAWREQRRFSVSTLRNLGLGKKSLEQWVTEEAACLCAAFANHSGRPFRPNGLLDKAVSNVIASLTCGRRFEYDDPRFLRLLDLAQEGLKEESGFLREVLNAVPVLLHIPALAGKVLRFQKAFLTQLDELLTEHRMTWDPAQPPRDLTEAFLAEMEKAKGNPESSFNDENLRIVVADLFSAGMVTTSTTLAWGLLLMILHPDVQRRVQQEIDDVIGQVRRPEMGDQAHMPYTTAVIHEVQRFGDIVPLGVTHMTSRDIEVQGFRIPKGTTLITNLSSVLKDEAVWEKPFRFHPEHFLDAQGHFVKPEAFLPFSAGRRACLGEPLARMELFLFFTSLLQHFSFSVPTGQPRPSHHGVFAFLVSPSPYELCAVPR
Experimental: (§2) The Biovision CYP assays (BioVision, Inc., Kampenhout, Belgium) employ non-fluorescent CYP2D6, 2C9, 2C19, 1A2, or 3A4 substrates able to undergo transformation into highly fluorescent detectable metabolites. […] Human hepatic microsomal supernatants were prepared (Gibco, Biocentre, Szeged, Hungary protein concentration: 20 mg/mL) separately by mixing 30 µL with 2425 µL assay buffer and with 50 µL nicotinamide adenine dinucleotide phosphate (NADPH) generating system (100×). […] Control measurements were performed in the absence of the inhibitors.
(§3) In background controls, only assay buffer excluding microsomes and test compounds was used in a volume of 70 µL. Subsequently, after incubation at 37 °C for 15 min, 30 µL of the suitable CYP substrate/NADP+ mixture was incorporated into each well, resulting in a final reaction volume of 100 µL/well. The obtained microsomal protein content was assessed using the bicinchoninic acid protein assay kit (Pierce BCA kit, Thermo Fisher Scientific, Waltham, MA, USA). In each assay, the microsomal protein concentration was calibrated to 100 µg/well. The fluorescence intensities were measured with a fluorometer (Victor X2 2030, Perkin Elmer, Waltham, MA, USA) using λex/em = 406/468 nm for CYP1A2 and for CYP2C19, λex/em = 415/502 nm for CYP2C9, λex/em = 390/468 nm for CYP2D6, and λex/em = 535/587 nm for CYP3A4 assays.

CYP1A2 = target: T1, CYP1A2 (Homo sapiens, UniProt P05177); test: as above; settings: reference inhibitor at 6 µM; p < 0.001
T1 sequence (P05177 1-516): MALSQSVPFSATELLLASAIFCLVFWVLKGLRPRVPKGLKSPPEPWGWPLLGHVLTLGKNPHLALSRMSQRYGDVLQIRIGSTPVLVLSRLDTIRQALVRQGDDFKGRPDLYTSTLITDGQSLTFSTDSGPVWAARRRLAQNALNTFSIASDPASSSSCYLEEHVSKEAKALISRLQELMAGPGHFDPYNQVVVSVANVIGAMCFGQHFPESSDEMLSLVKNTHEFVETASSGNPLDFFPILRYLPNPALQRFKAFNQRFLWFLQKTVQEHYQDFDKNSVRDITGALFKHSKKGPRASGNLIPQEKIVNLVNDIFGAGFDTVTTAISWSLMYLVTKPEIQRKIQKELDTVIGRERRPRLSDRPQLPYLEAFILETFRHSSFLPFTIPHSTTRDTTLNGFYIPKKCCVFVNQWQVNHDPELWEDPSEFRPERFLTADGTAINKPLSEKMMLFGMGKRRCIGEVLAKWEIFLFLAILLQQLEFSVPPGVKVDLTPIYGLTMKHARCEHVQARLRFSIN
Experimental: as §2, §3

[13] = E. fecalis, source 442, 18–24 h at 37 °C, read-out: MIC
[14] = B. cepacia, source 20-10299, 18–24 h at 37 °C, read-out: MIC

## N=C(N)c1cccc(C[C@H](NS(=O)(=O)c2cccc(-c3ccc(Cl)cc3Cl)c2)C(=O)N2CCC(CCN)CC2)c1 [MI-432]
Porcine hepatocytes
  IL-6 levels: significant anti-inflammatory effects
IPEC-J2 cells [1]
  IL-6 levels: significant anti-inflammatory effects
IPEC-J2 cells [2]; IPEC-J2, S. suis 10^4 CFU/mL in combination with inhibitor 50 µM
  EC H2O2 production: unchanged H₂O₂ production; also recorded: antioxidant properties
IPEC-J2 cells [2]; IPEC-J2, inhibitor alone 50 µM
  EC H2O2 production: unchanged H₂O₂ production
IPEC-J2 cells [3]
  cell viability: slightly less worsening of the cells; also recorded: reduction in the number of viable cells
Monkey CYP1A2 enzymes
  inhibition of monkey CYP1A2 enzymes: significant inhibition
[4]; Enterococcus
  MIC: > 800 µM
[5]
  MIC: 800 µM (≈ 482 µg/mL)
S. suis serotype 2; Streptococcus suis
  MIC: 1.5 µM (≈ 0.904 µg/mL)
S. suis serotype 2
  MIC: < 1.5625 µM
S. suis serotype 2; listed as 432
  MIC: <1.5625 µM
SARS-CoV-2
  efficacy against SARS-CoV-2: effective
[6]
  cell viability: significantly decreased cell viability; also recorded: reduction in the number of viable cells
[7]; read-out: MIC
  MIC: 50 µM (≈ 30.1 µg/mL)
[8]
  MIC: > 800 µM
[9]
  MIC: > 800 µM

## COc1ccc(-c2cccc(S(=O)(=O)N[C@@H](Cc3cccc(C(=N)N)c3)C(=O)N3CCC(N)CC3)c2)c(OC)c1 [MI-472]
[4]; [13]
  MIC: >800 µM
[5]; [14]
  MIC: 800 µM (≈ 453 µg/mL)
S. suis serotype 2
  MIC: 50 µM (≈ 28.3 µg/mL)
[7]; read-out: MIC
  MIC: 800 µM (≈ 453 µg/mL)
[8]
  MIC: >800 µM
[10]
  MIC: 400 µM (≈ 226 µg/mL)
[9]
  MIC: >800 µM
[11]
  MIC: >800 µM

## COc1ccc(-c2cccc(S(=O)(=O)N[C@@H](Cc3cccc(C(=N)N)c3)C(=O)N3CCC(NC(=O)NC(C)(C)C)CC3)c2)c(OC)c1 [MI-485]
[4]; [13]
  MIC: >800 µM
[5]; [14]
  MIC: 800 µM (≈ 532 µg/mL)
S. suis serotype 2
  MIC: 50 µM (≈ 33.2 µg/mL)
[7]
  MIC: 100 to 200 µM
[7]; read-out: MIC
  MIC: 200 µM (≈ 133 µg/mL)
[8]
  MIC: >800 µM
[10]
  MIC: >800 µM
[9]
  MIC: >800 µM
[11]
  MIC: >800 µM

## COc1ccc(-c2cccc(S(=O)(=O)N[C@@H](Cc3cccc(C(=N)N)c3)C(=O)N3CCN(C(=O)NC4CCCCC4)CC3)c2)c(OC)c1 [MI-1900, reference compound]
SARS-CoV-2
  efficacy against SARS-CoV-2: effective

## CO/N=C(\C(=O)N[C@@H]1C(=O)N2C(C(=O)O)=C(CSC(=O)c3ccco3)CS[C@H]12)c1csc(N)n1 [ceftiofur]
[12]
  S. suis strains found to be sensitive: 97%

## CCN1CCN(c2cc3c(cc2F)c(=O)c(C(=O)O)cn3C2CC2)CC1 [enrofloxacin]
[12]
  S. suis strains sensitive: more than 95%

## CS(=O)(=O)c1ccc([C@@H](O)[C@@H](CF)NC(=O)C(Cl)Cl)cc1 [florfenicol]
[12]
  S. suis strains sensitive: more than 95%

## C=C[C@H]1C[N@@]2CC[C@H]1C[C@@H]2[C@@H](O)c1ccnc2ccc(OC)cc12 [quinidine]
CYP2D6
  CYP2D6 activity: significantly suppressed

## CN(C)[C@@H]1C(O)=C(C(N)=O)C(=O)[C@@]2(O)C(O)=C3C(=O)c4c(O)cccc4[C@@](C)(O)[C@H]3C[C@@H]12 [tetracycline]
[12]
  S. suis strains sensitive: 4%

## O=c1cc(-c2ccccc2)oc2c1ccc1ccccc12 [α-naphthoflavone, reference compound]
CYP1A2
  CYP1A2 activity: significantly suppressed

## amoxicillin–clavulanic acid
[12]
  S. suis strains found to be sensitive: 100%

From article PMC11048155, “Antiviral Drug Candidate Repositioning for Streptococcus suis Infection in Non-Tumorigenic Cell Models” (Biomedicines, 2024)
